According to paper PMC5889877, “Ex Vivo Cardiotoxicity of Antineoplastic Casiopeinas Is Mediated through Energetic Dysfunction and Triggered Mitochondrial-Dependent Apoptosis” (Oxidative Medicine and Cellular Longevity, 2018):
Marks after values point to notes of the source that are not given here.

Tests used:
[1] = system: mitochondrial permeability transition pore; assay: Mitochondrial Ca2+ retention capacity (MPT opening); set-up: species or system rat; conditions: mitochondria from treated hearts, CsA 0.5 μM added in vitro
Experimental: (§1) To measure mitochondrial oxygen consumption, mitochondrial membrane potential, and Ca^2+ uptake, cytochrome c samples were prepared as follows: after perfusion, heart tissue from the left ventricle was minced and homogenized in cold mitochondrial isolation medium (in mM: 125 KCl, 1 EDTA, and 10 HEPES-HCl; pH 7.3). The mitochondrial fraction was obtained by differential centrifugation using the protease Nagarse, as previously described. Mitochondrial oxygen consumption was measured using a Clark-type oxygen electrode. The experiments were carried out in respiration assay medium containing 125 KCl, 10 HEPES-HCl, and 3 KH2PO4 (in mM) with pH 7.3. State 4 respiration was measured in the presence of 10 mM glutamate-malate, and state 3 respiration was evaluated after addition of 100 μM ADP. Maximal respiration was determined with 0.08 μM of carbonyl cyanide m-chlorophenyl hydrazine (CCCP). The mitochondrial membrane potential was measured by fluorometry using 5 μM safranine. Mitochondrial Ca^2+ uptake was determined with the metalochromic indicator, Arsenazo III, or calcium green 5N (5N-CG), using a medium containing 50 μM Arsenazo or 10 μM 5N-CG, 10 mM succinate plus rotenone (0.1 μg·ml^−1), 200 μM ADP, and 0.25 μg oligomycin A. Pulses of 10 nmol Ca^+2 were added every 3 minutes to reach a Ca^+2 release due to MPT opening. Mitochondrial cytochrome c quantification from Cas-treated hearts was performed using Western blot analysis as described previously. The blots were developed with Luminata crescendo substrate (Merck Millipore, Darmstadt, Germany) and detected with VisionWorks LS-UVP Chimio System (BioSpectrum 415 Imaging System, Cambridge, UK).

caspases 3 and 7 = assay: Caspase-Glo 3/7 activity in cell lysates; format: cell-based, rat; conditions: cardiomyocytes treated at IC50, compared to Doxo or the control
Source text: Ventricular cardiomyocytes were obtained from male Wistar rats (250–300 g) by digestion with collagenase type II as previously described. Cells were washed in Tyrode solution (mM): 130 NaCl, 5.4 KCl, 0.4 NaH2PO4, 0.5 MgCl2, 25 HEPES, and 5 glucose with pH 7.4. After isolation, cells were cultivated at a density of 3.2 × 10^3 viable cells/well in 96-well plates pretreated with laminin in M-199 medium supplemented in mM with 5 taurine, 5 creatine, 2 L-carnitine, 2.5 sodium pyruvate, and penicillin-streptomycin at 100 U·ml^−1 and 100 μg·ml^−1, respectively, at 37°C, with 5% CO2 and 95% air. After incubation for three hours, varying concentrations of Cas were tested in triplicate, exposing the myocytes during 24 hours to each treatment. At the end of the incubation period, the cytotoxicity of Cas was measured using the Alamar Blue viability test (Life Technologies, Carlsbad, CA, USA). Release of cytoplasmic lactate dehydrogenase (LDH) was determined using CytoTox-ONE homogeneous membrane integrity kit (Promega Madison, WI, USA). The activity of caspases 3/7 and caspase 9 was measured in cell lysates using caspase-Glo 3/7 and caspase-Glo 9 test luminescent assay (Promega, Madison, WI, USA), respectively. The cardiomyoblast cell line H9c2 (ATCC CRL-1446) was maintained using standard procedures in DMEM supplemented with 10% fetal bovine serum prior to the oxidative stress experiments.

aconitase = assay: Mitochondrial aconitase activity in heart homogenates; conditions: ex vivo heart, Cas at IC50, Doxo 5 μM
Experimental: (§2) To measure the energetic metabolites ATP, phosphocreatine (PCr), and aconitase activity at the end of the perfusion protocols, samples were prepared as follows: the hearts were removed from the perfusion system by cutting the aorta and immediately flash-frozen with liquid N2, weighed, and stored at −80°C. Afterward, the hearts were homogenized in ice-cold buffer containing 250 mM sucrose, 10 mM HEPES, and 1 mM EDTA (pH 7.4). For enzymatic determination, aliquots of the homogenate were immediately frozen in liquid nitrogen and stored at −80°C. Quantification of ATP and PCr was carried out in a HPLC system with a dual-pump gradient (Waters Chromatography, Toronto, Canada) as previously described.

cytochrome c = assay: Mitochondrial cytochrome c content by Western blot; set-up: species or system rat; conditions: heart mitochondria after 30 min perfusion at IC50
Experimental: as §1, with “Mitochondrial cytochrome c quantification from Cas-treated hearts was performed using Western blot analysis as described previously. The blots were developed with Luminata crescendo substrate (Merck Millipore, Darmstadt, Germany) and detected with VisionWorks LS-UVP Chimio System (BioSpectrum 415 Imaging System, Cambridge, UK).” left out

subcutaneous tumors = conditions: nude mice ref 29; cited from earlier work
[2] = system: α-ketoglutarate dehydrogenase; set-up: method as in PMID 26739598; conditions: cited from earlier work
isolated rat hearts [3] = assay: Myocardial oxygen consumption and energetic metabolites (ATP, PCr) in perfused hearts; conditions: Cas at IC50, Doxo 5 μM
Experimental: (§3) Male Wistar rats (250–300 g) were injected with heparin (10^3 U·kg^−1, i.p.) 20 minutes prior to anesthesia with pentobarbital (100 mg·kg^−1, i.p.). When bilateral corneal reflex was absent, the heart was excised through an abdominal approach. Then, the ascending aorta was visualized and cut and the heart was placed in a cardioplegic solution. To avoid ischemia, the time between cutting the diaphragm to placing the heart in the solution was less than 60 seconds. The hearts were mounted in accordance with the Langendorff model and perfused at a constant flow (12 ml·min^−1) with a Krebs-Henseleit buffer as previously described. A latex balloon connected to a pressure transducer filled with saline solution was inserted into the left ventricle after establishing autonomous contraction. The pulmonary artery was cannulated and connected to a closed chamber using a Clark-type oxygen electrode (Yellow Springs Instruments, Yellow Springs, Ohio) to measure myocardial oxygen consumption (MVO2) in the coronary effluent. The rate of MVO2 was calculated as the difference between the concentration in the K-H buffer before (100%) and after perfusion. Data Trax software (WPI, Sarasota, Florida) was used for continuous recording of the heart rate (HR), left ventricular pressure (LVP), MVO2, and maximum positive and negative derivative of left ventricular pressure (±dP/dt). The baseline was established during 10–15 minutes of K-H perfusion. Each concentration of Cas or Doxo remained in the heart for 30 min. Hearts in the control group were perfused with K-H buffer during the whole experimental time. Rate pressure product (RPP = HR × LVP) and cardiac efficiency ([…]) were calculated as previously reported.
as §2

isolated rat hearts [4] = assay: Langendorff-perfused isolated rat heart: mechanical performance (RPP, HR, ±dP/dt, cardiac efficiency)
Experimental: as §3

[5] = system: mitochondria isolated from Cas-treated hearts; assay: Respiratory activity of mitochondria isolated from treated hearts (Clark-type oxygen electrode); set-up: species or system rat
Experimental: as §1

For `CC(=O)C=C(C)[O-].Cc1ccnc(-c2cc(C)ccn2)c1.O.O.O=[N+]([O-])[O-].[Cu+2]` [Cas III-ia, Aqua(4,4-dimethyl-2,2′bipyridine)(acetylacetonate)copper(II)nitrate], the “protective effect of CsA on Ca2+ retention capacity” value [1] was 28%, the “increase in activity of caspases 3 and 7” value (caspases 3 and 7) was ~ 4 fold and the aconitase activity (aconitase) was “decreased”. The “mitochondrial cytochrome c content” value (cytochrome c) was “reduction of cytochrome c”, the “reduction of the volume of subcutaneous tumors” value (subcutaneous tumors) was 81% and the “α-ketoglutarate dehydrogenase activity compared with III-Ea” value [2] was “twofold decrease”. The PCr levels (isolated rat hearts [3]) was “decreased”, the “change in MVO2” value (isolated rat hearts [3]) was “no changes” and the “decrease in ATP content” value (isolated rat hearts [3]) was 37%. For the same compound, the “+dP/dt × 1000 (contraction rate)” value (isolated rat hearts [4]; hearts treated at the IC50) was 2.4 ± 0.20^∗ mmHg·s^−1, the “−dP/dt × 1000 (relaxation rate)” value (isolated rat hearts [4]; hearts treated at the IC50) was −1.0 ± 0.16^∗ mmHg·s^−1 and the “t 0.5, time for half-inhibition of RPP” value (isolated rat hearts [4]; isolated rat heart, 5 μM) was 49 ± 0.8^a,b,c min. For the same compound, the “heart rate (HR) reduction” value (isolated rat hearts [4]; perfused at 5 μM) was “not affected”, the IC50 (isolated rat hearts [4]; read-out: IC50, half-maximal inhibitory concentration for RPP (heart contractile function), isolated rat heart, at 30 min perfusion) was 10 ± 0.7 µM and the Max. respiration ([5]; 0.08 μM CCCP) was 12.3 ± 2.6^∗ nmol O min^−1·mg^−1. The “State 4 respiration” value ([5]; 10 mM glutamate-malate) was 15.6 ± 2.6 nmol O min^−1·mg^−1, the Respiratory control ([5]; malate/glutamate) was 1.3 ± 0.1^∗ and the “State 3 respiration” value ([5]; malate/glutamate, after 100 μM ADP) was 18.5 ± 0.6^∗ nmol O min^−1·mg^−1. The “decrease in state 3 respiration rate” value ([5]; versus control) was 78% and the “reduction in maximal respiration” value ([5]; versus control) was 87%.
